Like-named read-outs stand apart in the source and are kept apart here.
Legend:
Assay type in all cases: in vivo
kochia (Kochia scoparia) [1] = assay: Test D postemergence plant response
Summary of the method: (§1)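 Scores reflect visual plant response relative to untreated controls on a 0 to 100 scale, where 100 means complete control. Treatment was postemergence on 2–18 cm plants in peat-based potting medium, with greenhouse assessment 13–15 days later.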

wild oat (Avena fatua) = assay: Test D postemergence plant response
Summary of the method: as §1

[2] = system: chickweed (common chickweed, Stellaria media); assay: Test D postemergence plant response
Summary of the method: as §1

rice (Oryza sativa) = assay: Test C flooded paddy test plant response; details: Flood, 250 g ai/ha, scale of 0 to 100 where 0 is no effect and 100 is complete control, 13 to 15 days
Summary of the method: (§2)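 Two-leaf stage → flood to 3 cm → compound into water → hold depth, greenhouse 13–15 d → visual score vs controls (0 none, 100 complete control).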

[3] = system: ducksalad (Heteranthera limosa); assay: Test C flooded paddy test plant response; details: Flood, 250 g ai/ha, scale of 0 to 100 where 0 is no effect and 100 is complete control, 13 to 15 days
Summary of the method: as §2

[4] = system: barnyardgrass (Echinochloa crus-galli); assay: Test C flooded paddy test plant response; details: Flood, 250 g ai/ha, scale of 0 to 100 where 0 is no effect and 100 is complete control, 13 to 15 days
Summary of the method: as §2

[5] = system: small-flower umbrella sedge (Cyperus difformis); assay: Test C flooded paddy test plant response; details: Flood, 250 g ai/ha, scale of 0 to 100 where 0 is no effect and 100 is complete control, 13 to 15 days
Summary of the method: as §2

kochia (Kochia scoparia) [6] = assay: Test B pre-/postemergence plant response
Summary of the method: (§3)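 Ratings reflect visual injury versus untreated controls, from 0 for no effect to 100 for complete control, assessed roughly 10 days after treatment. Formulation: non-phytotoxic solvent mix with surfactant; pre- and postemergence sprays on plants grown in loam soil and sand.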

[7] = system: giant foxtail (Setaria faberii); assay: Test B pre-/postemergence plant response; details: for pest or weed control at 1000 g/ha: Setaria faberi, 240 h, read-out: Plant response rating, Foxtail, Giant
Summary of the method: as §3

[8] = system: barnyardgrass (Echinochloa crus-galli); assay: Test B pre-/postemergence plant response; details: for pest or weed control at 1000 g/ha: Echinochloa crus-galli, 240 h, read-out: Plant response rating, Barnyardgrass
Summary of the method: as §3

corn (Zea mays) = assay: Test B pre-/postemergence plant response
Summary of the method: as §3

[9] = system: pigweed (Amaranthus retroflexus); assay: Test B pre-/postemergence plant response; details: for pest or weed control at 1000 g/ha: Amaranthus retroflexus, 240 h, read-out: Plant response rating, Pigweed
Summary of the method: as §3

[10] = system: Italian ryegrass (Lolium multiflorum); assay: Test B pre-/postemergence plant response
Summary of the method: as §3

[11] = system: wheat (Triticum aestivum); assay: Test B pre-/postemergence plant response
Summary of the method: as §3

[12] = system: ragweed (common ragweed, Ambrosia elatior); assay: Test B pre-/postemergence plant response
Summary of the method: as §3

[13] = system: galium (catchweed bedstraw, Galium aparine); assay: Test B postemergence plant response
Summary of the method: (§4)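 Seedlings in a loam soil and sand mix received a postemergence application of the formulated chemicals at the one- to two-leaf stage (2–10 cm tall). They were kept in a greenhouse for roughly 10 days, then scored for injury relative to untreated plants, 0 meaning no effect and 100 complete control.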

[14] = system: blackgrass (Alopecurus myosuroides); assay: Test B postemergence plant response
Summary of the method: as §4

[15] = Postemergence, 1000 g ai/ha, 0 to 100 scale (0 no effect, 100 complete control)
[16] = Preemergence, 1000 g ai/ha, 0 to 100 scale (0 no effect, 100 complete control)
[17] = post-emergence, Postemergence, 1000 g ai/ha, 0 to 100 scale (0 no effect, 100 complete control)
[18] = pre-emergence, Preemergence, 1000 g ai/ha, 0 to 100 scale (0 no effect, 100 complete control)
[19] = 16 g ai/ha, scale 0 to 100 (0 no effect, 100 complete control)
[20] = 31 g ai/ha, scale 0 to 100 (0 no effect, 100 complete control)
[21] = 62 g ai/ha, scale 0 to 100, 0 no effect, 100 complete control
[22] = 125 g ai/ha, scale 0 to 100, 0 no effect, 100 complete control
[23] = 125 g ai/ha, postemergence, 0 to 100 scale, 0 no effect, 100 complete control
[24] = Postemergence, 500 g ai/ha, 0 to 100 scale (0 no effect, 100 complete control)
[25] = Preemergence, 125 g ai/ha, 0 to 100 scale where 0 is no effect and 100 is complete control
[26] = Preemergence, 500 g ai/ha, 0 to 100 scale where 0 is no effect and 100 is complete control

Fc1cccc(Oc2ncc(Cl)cn2)c1-c1cc(C(F)F)on1 [Compound 55, 5-chloro-2-[2-[5-(difluoromethyl)-3-isoxazolyl]-3-fluorophenoxy]pyrimidine]
pest or weed control at 16 g/ha (kochia (Kochia scoparia) [1]; Bassia scoparia, post-emergence, 16 g ai/ha, scale 0 to 100 (0 no effect, 100 complete control), read-out: Kochia plant response rating): 98%
pest or weed control at 31 g/ha (kochia (Kochia scoparia) [1]; Bassia scoparia, post-emergence, 31 g ai/ha, scale 0 to 100 (0 no effect, 100 complete control), read-out: Kochia plant response rating): 100%
pest or weed control at 62 g/ha (kochia (Kochia scoparia) [1]; Bassia scoparia, post-emergence, 62 g ai/ha, scale 0 to 100, 0 no effect, 100 complete control, read-out: Plant response rating, Kochia): 100%
pest or weed control at 125 g/ha (kochia (Kochia scoparia) [1]; Bassia scoparia, post-emergence, 125 g ai/ha, scale 0 to 100, 0 no effect, 100 complete control, read-out: Plant response rating, Kochia): 100%
pest or weed control at 16 g/ha (wild oat (Avena fatua); Avena fatua, post-emergence, 16 g ai/ha, scale 0 to 100 (0 no effect, 100 complete control), read-out: Oat, Wild plant response rating): 5%
pest or weed control at 31 g/ha (wild oat (Avena fatua); Avena fatua, post-emergence, 31 g ai/ha, scale 0 to 100 (0 no effect, 100 complete control), read-out: Oat, Wild plant response rating): 15%
pest or weed control at 62 g/ha (wild oat (Avena fatua); Avena fatua, post-emergence, 62 g ai/ha, scale 0 to 100, 0 no effect, 100 complete control, read-out: Plant response rating, Oat, Wild): 40%
pest or weed control at 125 g/ha (wild oat (Avena fatua); Avena fatua, post-emergence, 125 g ai/ha, scale 0 to 100, 0 no effect, 100 complete control, read-out: Plant response rating, Oat, Wild): 40%
pest or weed control at 16 g/ha ([2]; Stellaria media, post-emergence, 16 g ai/ha, scale 0 to 100 (0 no effect, 100 complete control), read-out: Chickweed plant response rating): 70%
pest or weed control at 31 g/ha ([2]; Stellaria media, post-emergence, 31 g ai/ha, scale 0 to 100 (0 no effect, 100 complete control), read-out: Chickweed plant response rating): 75%
pest or weed control at 62 g/ha ([2]; Stellaria media, post-emergence, 62 g ai/ha, scale 0 to 100, 0 no effect, 100 complete control, read-out: Plant response rating, Chickweed): 98%
pest or weed control at 125 g/ha ([2]; Stellaria media, post-emergence, 125 g ai/ha, scale 0 to 100, 0 no effect, 100 complete control, read-out: Plant response rating, Chickweed): 100%
plant injury at 250 g/ha (rice (Oryza sativa); Oryza sativa, read-out: Rice plant response rating): 25%
pest or weed control at 250 g/ha ([3]; Heteranthera limosa, read-out: Ducksalad plant response rating): 100%
pest or weed control at 250 g/ha ([4]; Echinochloa crus-galli, read-out: Barnyardgrass plant response rating): 25%
pest or weed control at 250 g/ha ([5]; Cyperus difformis, read-out: Sedge, Umbrella plant response rating): 90%
Plant response rating, Kochia (kochia (Kochia scoparia) [6]; [15]): 100
Plant response rating, Kochia (kochia (Kochia scoparia) [6]; [16]): 100
pest or weed control at 1000 g/ha [7, 17]: 100%
pest or weed control at 1000 g/ha [7, 18]: 100%
pest or weed control at 1000 g/ha [8, 17]: 100%
pest or weed control at 1000 g/ha [8, 18]: 100%
Corn plant response rating (crop injury, 0 = no effect, 100 = complete kill) at 1000 g/ha (corn (Zea mays); Zea mays, post-emergence, 240 h, Postemergence, 1000 g ai/ha, 0 to 100 scale (0 no effect, 100 complete control)): 100%
pest or weed control at 1000 g/ha [9, 17]: 100%
pest or weed control at 1000 g/ha [9, 18]: 100%
Plant response rating, Ryegrass, Italian [10, 15]: 100
Plant response rating, Ryegrass, Italian [10, 16]: 100
plant injury at 1000 g/ha ([11]; Triticum aestivum, post-emergence, 240 h, Postemergence, 1000 g ai/ha, 0 to 100 scale (0 no effect, 100 complete control), read-out: Plant response rating, Wheat): 100%
Plant response rating, Ragweed [12, 15]: 100
Plant response rating, Ragweed [12, 16]: 100
Plant response rating, Galium [13, 15]: 100
Plant response rating, Blackgrass [14, 15]: 100

FCc1cc(-c2c(F)cccc2Oc2ncc(Cl)cn2)no1 [Compound 57]
Kochia plant response rating (kochia (Kochia scoparia) [1]; [19]): 75
Kochia plant response rating (kochia (Kochia scoparia) [1]; [20]): 90
Plant response rating, Kochia (kochia (Kochia scoparia) [1]; [21]): 95
Plant response rating, Kochia (kochia (Kochia scoparia) [1]; [22]): 100
Oat, Wild plant response rating (wild oat (Avena fatua); [19]): 0
Oat, Wild plant response rating (wild oat (Avena fatua); [20]): 0
Plant response rating, Oat, Wild (wild oat (Avena fatua); [21]): 5
Plant response rating, Oat, Wild (wild oat (Avena fatua); [22]): 15
Chickweed plant response rating [2, 19]: 30
Chickweed plant response rating [2, 20]: 50
Plant response rating, Chickweed [2, 21]: 55
Plant response rating, Chickweed [2, 22]: 75
Rice plant response rating (rice (Oryza sativa)): 0
Ducksalad plant response rating [3]: 90
Barnyardgrass plant response rating [4]: 0
Sedge, Umbrella plant response rating [5]: 75
Plant response rating, Kochia (kochia (Kochia scoparia) [6]; [15]): 90
Plant response rating, Kochia (kochia (Kochia scoparia) [6]; [16]): 100
Plant response rating, Foxtail, Giant [7, 15]: 100
Plant response rating, Foxtail, Giant [7, 16]: 100
Plant response rating, Barnyardgrass [8, 15]: 100
Plant response rating, Barnyardgrass [8, 16]: 100
Plant response rating, Corn (corn (Zea mays); [15]): 90
Plant response rating, Pigweed [9, 15]: 100
Plant response rating, Pigweed [9, 16]: 90
Plant response rating, Ryegrass, Italian [10, 15]: 80
Plant response rating, Ryegrass, Italian [10, 16]: 80
Plant response rating, Wheat [11, 15]: 90
Plant response rating, Ragweed [12, 15]: 100
Plant response rating, Ragweed [12, 16]: 90
Plant response rating, Galium [13, 15]: 90
Plant response rating, Blackgrass [14, 15]: 90

Cc1cc(-c2ccccc2Oc2ncc(Cl)cn2)on1 [Compound 58]
Kochia plant response rating (kochia (Kochia scoparia) [1]; [19]): 35
Kochia plant response rating (kochia (Kochia scoparia) [1]; [20]): 50
Plant response rating, Kochia (kochia (Kochia scoparia) [1]; [21]): 60
Plant response rating, Kochia (kochia (Kochia scoparia) [1]; [22]): 80
Oat, Wild plant response rating (wild oat (Avena fatua); [19]): 0
Oat, Wild plant response rating (wild oat (Avena fatua); [20]): 0
Plant response rating, Oat, Wild (wild oat (Avena fatua); [21]): 0
Plant response rating, Oat, Wild (wild oat (Avena fatua); [22]): 0
Chickweed plant response rating [2, 19]: 5
Chickweed plant response rating [2, 20]: 10
Plant response rating, Chickweed [2, 21]: 15
Plant response rating, Chickweed [2, 22]: 30
Rice plant response rating (rice (Oryza sativa)): 0
Ducksalad plant response rating [3]: 80
Barnyardgrass plant response rating [4]: 0
Sedge, Umbrella plant response rating [5]: 40
Plant response rating, Kochia (kochia (Kochia scoparia) [6]; [23]): 100
Plant response rating, Kochia (kochia (Kochia scoparia) [6]; [24]): 100
Plant response rating, Kochia (kochia (Kochia scoparia) [6]; [25]): 80
Plant response rating, Kochia (kochia (Kochia scoparia) [6]; [26]): 100
Plant response rating, Foxtail, Giant [7, 23]: 70
Plant response rating, Foxtail, Giant [7, 24]: 90
Plant response rating, Foxtail, Giant [7, 25]: 90
Plant response rating, Foxtail, Giant [7, 26]: 100
Plant response rating, Barnyardgrass [8, 23]: 70
Plant response rating, Barnyardgrass [8, 24]: 90
Plant response rating, Barnyardgrass [8, 25]: 60
Plant response rating, Barnyardgrass [8, 26]: 100
Plant response rating, Corn (corn (Zea mays); [23]): 0
Plant response rating, Corn (corn (Zea mays); [24]): 50
Plant response rating, Pigweed [9, 23]: 100
Plant response rating, Pigweed [9, 24]: 100
Plant response rating, Pigweed [9, 25]: 100
Plant response rating, Pigweed [9, 26]: 100
Plant response rating, Ryegrass, Italian [10, 23]: 20
Plant response rating, Ryegrass, Italian [10, 24]: 80
Plant response rating, Ryegrass, Italian [10, 25]: 0
Plant response rating, Ryegrass, Italian [10, 26]: 20
Plant response rating, Wheat [11, 23]: 0
Plant response rating, Wheat [11, 24]: 50
Plant response rating, Ragweed [12, 23]: 100
Plant response rating, Ragweed [12, 24]: 100
Plant response rating, Ragweed [12, 25]: 70
Plant response rating, Ragweed [12, 26]: 80
Plant response rating, Galium [13, 23]: 100
Plant response rating, Galium [13, 24]: 100
Plant response rating, Blackgrass [14, 23]: 70
Plant response rating, Blackgrass [14, 24]: 90

Source: patent US10131652B2, “Pyrimidinyloxy benzene derivatives as herbicides” (E. I. DU PONT DE NEMOURS AND COMPANY, priority 2014, dated 2018)
